Measurements taken from patent US6265402A, “Use of 2-phenylmorpholin-5-one derivatives” (Nikken Chemicals Co., Ltd., priority 1996, dated 2001).

Columns and labels:
Type IV PDE = Type IV PDE inhibitory activity; format: biochemical; conditions: Type IV PDE partially purified from rat neutrophils; 3H-cAMP substrate, 30° C., 30 minutes
Procedure: Type I, III, IV, and V PDE isozymes were prepared to study the PDE inhibitory activities of and selectivities with the compound of the invention [Trends Pharmacol Sci., 12, 19-27 (1992)]. Type I PDE was purchased from Sigma Corp. Type III, IV, and V PDE isozymes were partially purified from platelets (Type III and V) or neutrophils (Type IV) collected from rats. Each enzyme source was homogenized in a buffer (pH 6.5) containing 20 mM bisTris, 2 mM EDTA (i.e., ethylenediamine tetraacetate), 0.1 mM PMSF (i.e., phenylmethylsulfonyl fluoride), 5 mM 2-mercaptoethanol, 0.001 mM pepstatin and 0.01 mM leupeptin and was centrifuged at 30000×G for 30 minutes to obtain a supernatant, which was applied to an ion exchange column (Q-sepharose First Flow, Pharmacia Corp.) and was eluted with 0 to 1M sodium acetate. Partially purified isozymes were identified by observing the effects by conventional inhibitors.
Each PDE isozyme and the test compound dissolved in DMSO (i.e., dimethyl sulfoxide) were added to 50 mM Tris-HCl buffer containing 5 mM magnesium chloride. ^3 H-cAMP (for type III and IV PDE) or ^3 H-cGMP (for type I and V PDE) were added as substrates and were reacted at 30° C. for 30 minutes. The reaction was terminated by placing the test tube in boiling water of 100° C. for 5 minutes. The nucleotides formed by PDE were broken down by 5'-nucleotidase to ^3 H-adenosine or 3H-guanosine. The unreacted substrate and reaction product were separated through an ion-exchange column (i.e., QAE sephadex, Pharmacia Corp.) The eluted ^3 H-nucleoside was measured for its radioactivity by a liquid scintillation counter. The inhibitory activities of the compound of the present invention are shown by the IC50 value (M). Further, the inhibitory activities of the test samples against Type I, III, and V are 1/10 or less than that against type IV.

[1] = test system: antigen-induced bronchospasms; test: Inhibitory effect on Antigen-Induced Bronchospasm (Anti-Asthmatic action); format: in vivo; conditions: Cavia porcellus; Hartley male guinea pig sensitized with Ovalbumin; intravenous, 10 minutes before 0.2 mg/kg OA i.v.; Konzett-Roessler method; read-out: Action for suppressing antigen-induced bronchospasms ED50
Procedure: Inhibitory effect on Antigen-Induced Bronchospasm (Anti-Asthmatic action)
A Hartley male guinea pig was sensitized by intramuscular administration of 35 mg Ovalbumin (OA) on first day and fourth day. A tracheal canula was introduced in the guinea pig anesthetized with pentobarbital and artificial ventilation was performed 25 to 29 days after the first sensitization. The overflow of the ventilation was measured by the Konzett-Roessler method while 0.2 mg/kg OA were administered intravenously. The test compound was dissolved in polyethylene glycol 400 and intravenously administered 10 minutes before administration of the antigens.

rat neutrophils = test: Inhibitory action of super oxide anion release from rat neutrophils; format: cell-based; conditions: Neutrophil, stimulation with 0.3 μM calcium ionophore A23187, chemiluminescence, Lusigenin
Procedure: Inhibitory effects on activity of rat neutrophils
The release of super oxide anions was measured so as to study the inhibitory effects of the compound of the present invention on inflammatory leukocytes, that is, neutrophils.
Blood sample was collected from Wister rats anesthetized with ether. It was superposed on a blood cell separation solution (Polymorphoprep 1.113, made by Naicomed Farm), and the neutrophils were separated by centrifugation. The neutrophils were resuspended in a Hank's balanced salt solution at a concentration of 0.5×10^4 cells/ml 0.1 mM of Lusigenin and the test substance dissolved in DMSO were added to 2 ml of the cell-suspension. The chemiluminescence generated by stimulation of 0.3 μM calcium ionophore A23187 was measured by a chemiluminescence reader so as to evaluate the release of super oxide anions.

Row | IC50 (Type IV PDE) [µM] | IC50 (rat neutrophils) [µM] | SMILES | ED50 [1] [mg/kg]
1 | 37 | 29 | COc1ccc(C2CNC(=O)CO2)cc1OC (stereo not shown) [Compound No. 1, 2-(3,4-dimethoxyphenyl)morpholin-5-one] | 
2 | 0.13 |  | COc1ccc(C2(C)CNC(=O)CO2)cc1OC1Cc2ccccc2C1 (stereo not shown) [Compound No. 27, 2-[3-(2-indanyloxy)-4-methoxyphenyl]-2-methylmorpholin-5-one] | 7.99
3 | 1.8 | 1.4 | COc1ccc(C2CN(Cc3ccc(Br)cc3)C(=O)CO2)cc1OC1CCCC1 (stereo not shown) [Compound No. 13, 4-(4-bromobenzyl)-2-(3-cyclopentyloxy-4-methoxyphenyl)morpholin-5-one] | 
4 | 0.31 |  | COc1ccc(C2CN(C)C(=O)CO2)cc1OC1CCCC1 (stereo not shown) [Compound No. 14, 2-(3-cyclopentyloxy-4-methoxyphenyl)-4-methylmorpholin-5-one] | 2.1
5 | 7.9 |  | CCOC(=O)CN1CC(c2ccc(OC)c(OC3CCCC3)c2)OCC1=O (stereo not shown) [Compound No. 15, 2-(3-cyclopentyloxy-4-methoxyphenyl)-4-ethoxycarbonylmethylmorpholin-5-one] | 
6 | 5.7 |  | COc1ccc(C2CNC(=O)CO2)cc1OCCOCc1ccccc1 (stereo not shown) [Compound No. 30, 2-[3-[2-(benzyloxy)ethoxy]-4-methoxyphenyl]morpholin-5-one] | 

Second part, the molecule before the results:

Row | SMILES | IC50 (Type IV PDE) [µM] | IC50 (rat neutrophils) [µM] | ED50 [1] [mg/kg]
7 | COc1ccc(C2CNC(=O)CO2)cc1OCC1(C)CC1 (stereo not shown) [Compound No. 35, 2-[3-[(1-methylcyclopropyl)methoxy]-4-methoxyphenyl]morpholin-5-one] | 1.3 |  | 6.22
8 | COc1ccc(C2CNC(=O)CO2)cc1OCC1CCCC1 (stereo not shown) [Compound No. 36, 2-(3-cyclopentylmethoxy-4-methoxyphenyl)morpholin-5-one] | 6.9 |  | 1
9 | CCCCOc1cc(C2CNC(=O)CO2)ccc1OC (stereo not shown) [Compound No. 5, 2-(3-butoxy-4-methoxyphenyl)morpholin-5-one] | 12 |  | 3.6
10 | COc1ccc(C2CNC(=O)CO2)cc1OCC(C)C (stereo not shown) [Compound No. 39, 2-[3-(2-methylpropoxy)-4-methoxyphenyl]morpholin-5-one] | 7.8 |  | 8.04
11 | COc1ccc(C2CNC(=O)CO2)cc1OC1CCCC1 (stereo not shown) [Compound No. 2, 2-(3-cyclopentyloxy-4-methoxyphenyl)morpholin-5-one] | 1.5 | 5.8 | 0.48
12 | COc1ccc(C2CNC(=O)CO2)cc1OCC1CC1 (stereo not shown) [Compound No. 8, 2-(3-cyclopropylmethoxy-4-methoxyphenyl)morpholin-5-one] | 2.5 |  | 4.31
13 | COc1ccc(C2(C)CNC(=O)CO2)cc1OC (stereo not shown) [Compound No. 9, 2-(3,4-dimethoxyphenyl)-2-methylmorpholin-5-one] | 16 | 1.6 | 
14 | COc1ccc(C2CNC(=O)CO2)cc1OCC1CCC1 (stereo not shown) [Compound No. 38, 2-(3-cyclobutylmethoxy-4-methoxyphenyl)morpholin-5-one] | 4.6 |  | 7.83
15 | COc1ccc(C2CN(Cc3ccc4ccccc4n3)C(=O)CO2)cc1OC1CCCC1 (stereo not shown) [Compound No. 18, 2-(3-cyclopentyloxy-4-methoxyphenyl)-4-(2-quinolylmethyl)morpholin-5-one] | 0.45 |  | 
